Assay results reported in patent US20240226107A1, “UBIQUITIN-SPECIFIC PROTEASE 1 (USP1) INHIBITOR” (SIMCERE ZAIMING PHARMACEUTICAL CO., LTD., priority 2021, published 2024).

Tests used:
[1] = molecular target: PXR (Homo sapiens (Human), UniProt O75469); test: Potential for PXR activation in DPX2 cells; assay type: cell-based; settings: versus 20 μM rifampicin
Method: DMSO solutions of the compounds to be tested and the control compound rifampicin solution were prepared, and diluted with Puracyp dosing medium (Puracyp, Cat. No: D-500-100) at 37° C. to respective test concentrations. The final concentrations of the compounds to be tested were 30 μM, 10 μM, and 1 μM, respectively, and the final concentration of rifampicin was 20 μM. The final concentration of DMSO in the test solution was 0.1%. In addition, 0.1% DMSO solution prepared with Puracyp dosing medium was used as a control.
DPX2 cells were suspended in Puracyp Culture medium (Puracyp, Cat No.: C-500-100) at a cell density of 4.5×10^5 cell/mL. Then, the suspension was placed on a 96-well culture plate at 100 μL/well for incubation at 37° C. for 24 h. The medium in appropriate wells of the 96-well culture plate was replaced (three times per well) by 100 μL of solution of the compounds to be tested and a control compound solution. After replacement, the plate was incubated at 37° C. for 24 h. The medium was then replaced (three times per well) by a newly prepared test solution of the compounds to be tested and a rifampicin test solution, and the plate was incubated at 37° C. for 24 h.
The medium in the 96-well culture plate was pipetted and washed twice with PBS. To each well, 50 μL of reagent diluted as required by CellTiter-Fluor™ Cell Viability Assay Kit (Promega, Cat. No.: G6082) was added, and incubated at 37° C. for 0.5 h. The 96-well plate was cooled to room temperature, and the fluorescence value of each well at 505 nm was measured in a fluorescence mode with a microplate reader at an excitation wavelength of 400 nm. Then, 50 μL of reagent prepared as required by One-Glo Luciferase Assay System (Promega, Cat. No.: E6120) was added to each well, and the mixture was incubated at room temperature for 5 min. The luminescence value of each well was read by using a lumen meter.
Normalized luciferase activity was determined by RLU/RFU, and the RLU and RFU of the samples were mean values of duplicate wells, respectively.
[formula] • Fold of activation: fold of activation of normalized luciferase; • RLUtest: measured luminescence value of test wells at each test dose of test compounds; • RLUvehicle: measured luminescence value of test wells when tested with the control DMSO solution; • RFUtest: measured fluorescence value of test wells at each test dose of test compounds; • RFUvehicle: measured fluorescence value of test wells when tested with the control DMSO solution.
The percentage of positive control was calculated as follows:
% Positive control=(fold activationtest compound−1)/(fold activationpositive control compound−1)×100% • % Positive control: percentage of PXR activation compared with 20 μM rifampicin activation at each test dose of test compounds; • Fold activationtest compound: fold of activation of normalized luciferase at each test dose of test compounds; • Fold activationpositive control compound: fold of activation of normalized luciferase of test compounds under 20 μM rifampicin.

[2] = Caco-2 permeability assay; assay type: in vitro ADME; settings: human, pH 7.4, Caco-2, 5 μM, 2 h
Method: The apparent permeability coefficient (Papp) of the analytical drug was determined by liquid chromatography-mass spectrometry (LC-MS/MS) through a Caco-2 cell model.
In this test example, Caco-2 cells were purchased from American Type Culture Collection (ATCC); 4-hydroxyethyl piperazine ethane sulfonic acid (HEPES) was purchased from Beijing Solarbio Science & Technology Co., Ltd.; Hanks' balanced salt solution (HBSS) and non-essential amino acids (NEAA) were purchased from ThermoFisher Scientific; penicillin, streptomycin, and trypsin/EDTA were purchased from Solarbio; fetal bovine serum (FBS) and DMEM medium were purchased from Corning; HTS-96-well Transwell plates and other sterile consumables were purchased from Corning; Millicell resistance measuring system was purchased from Millipore; Cellometer®K2 was purchased from Nexcelom Bioscience; Infinite 200 PRO microplate reader was purchased from Tecan; and MTS2/4 orbital shaker was purchased from IKA Labortechnik.
Caco-2 cells were cultured in a culture flask. […] Cells at a confluency of 70-90% can be used to inoculate the Transwell. Prior to cell inoculation, 50 μL of cell culture medium was added to each well of the upper Transwell chamber and 25 mL of cell culture medium was added to the lower plate. The plate was incubated in an incubator (37° C., 5% CO2) for 1 h, and then inoculated with cells. After cell digestion, the cell suspension was pipetted and transferred to a round bottom centrifuge tube for centrifugation at 120 g for 5 min. […] The medium was changed as follows: transwell chambers were separated from the receiver plate, medium in the receiver plate was discarded, then medium in the Transwell chambers was discarded, and finally, 75 μL of fresh medium was added to each chamber, and 25 mL of fresh medium was added to the receiver plate.
After approximately 14 days of culture, the Caco-2 cells reached the confluency and completed differentiation. In this case, the cells can be applied to permeability assay. The monolayer resistance was measured with a resistance meter (Millipore, USA) and the resistance per well was recorded. After the measurement, the Transwell plate was put back to the incubator. Calculation of resistance: measured resistance value (ohms)×membrane area (cm^2)=TEER value (ohm·cm^2); if TEER value <230 ohms·cm^2, the well can not be used for permeability assay.
In 900 mL of purified water, 2.38 g HEPES and 0.35 g sodium bicarbonate were dissolved, then 100 mL of 10×HBSS was added and stirred well, pH was adjusted to 7.4, and finally, the resulting solution was filtered to obtain 1 L of transport buffer (HBSS, 10 mM HEPES, pH 7.4).
A DMSO stock solution of 1 mM of compound to be tested was diluted with the transport buffer to obtain 5 μM test solution. The control compound digoxin or minoxidil was diluted with DMSO to 2 mM, and diluted with the transport buffer described above to 10 μM to obtain a control compound test solution. In addition, DMSO was also diluted with the transport buffer described above to a receiving end solution containing 0.5% DMSO.
The Transwell plate was removed from the incubator. Monolayer cell membranes were rinsed twice with the transport buffer (10 mM HEPES, pH 7.4) and incubated at 37° C. for 30 min.
The transport rate of the compound from the apical side to the basolateral side was determined. […]
The transport rate of the compound from the basolateral side to the apical side was determined.

[3] = Metabolic stability in vitro in rat hepatocytes; assay type: in vitro ADME; settings: read-out: Intrinsic clearance
Method: The concentration of each compound in the reaction system was measured by LC/MS/MS to calculate the intrinsic clearance of the compounds to be tested, and evaluate the metabolic stability in vitro in rat hepatocytes.
To the incubation plate, 198 μL of 0.5×10^6 cells/mL rat hepatocyte mixture and 2.0 μL of 100 μM compound to be tested or positive control were added to initiate reaction. Incubation was performed at 900 rpm at 37° C. […] Then the mixture was vortex-mixed for 5 min. […] Then 100 μL of supernatant of each compound was transferred to a 96-well sample plate, and 100 μL of purified water was added to dilute the sample. The resulting samples were quantified by ion chromatograms. The residual rate was calculated from peak areas of the compounds to be tested or the positive control. The slope k was determined using Microsoft Excel by linear regression of natural logarithm of the residual rate to the incubation time. The intrinsic clearance (in vitro CLint, μL/min/10^6 cells) was calculated from the slope value according to the following equation: […]

[4] = Metabolic stability in vitro in human hepatocytes; assay type: in vitro ADME; settings: read-out: Intrinsic clearance
Method: The concentration of each compound in the reaction system was measured by LC/MS/MS to calculate the intrinsic clearance of the compounds to be tested, and evaluate the metabolic stability in vitro in human hepatocytes.
To the incubation plate, 198 μL of 0.5×10^6 cells/mL human hepatocyte mixture and 2.0 μL of 100 μM compound to be tested or positive control were added to initiate reaction. Incubation was performed at 900 rpm at 37° C. […] Then the mixture was vortex-mixed for 5 min. […] Then 100 μL of supernatant of each compound was transferred to a 96-well sample plate, and 100 μL of purified water was added to dilute the sample.
The resulting samples were quantified by ion chromatograms. The residual rate was calculated from peak areas of the compounds to be tested or the positive control. The slope k was determined using Microsoft Excel by linear regression of natural logarithm of the residual rate to the incubation time. The intrinsic clearance (in vitro CLint, μL/min/10^6 cells) was calculated from the slope value according to the following equation: […]

[5] = In vivo pharmacokinetics in SD rats; settings: male, rat, plasma
Method: Using SD rats as test animals, drug concentrations in plasma of the rats at different times after intravenous injection and intragastric administration of the compounds provided in the present application were determined by LC/MS/MS. In vivo pharmacokinetic behaviors of the compounds provided in the present application in rats were investigated to evaluate pharmacokinetic characteristics of the compounds.
There were three healthy 6-8-week-old male SD rats in each group.
Intravenous administration: A certain amount of drug was weighed, and then 10 vol % N,N-dimethylacetamide, 33 vol % triethylene glycol, and 57 vol % physiological saline were added to prepare 1 mg/mL colorless clear and transparent liquid;
Intragastric administration: A certain amount of drug was weighed, and then 0.5 wt % hydroxypropyl methylcellulose, 0.1 vol % tween 80, and 99.6 vol % physiological saline were added to prepare 1 mg/mL white suspension.
After fasting overnight, the SD rats were dosed intravenously or intragastrically.
The compounds provided in the present application were administered intravenously to the rats, then 0.2 mL of blood was collected from jugular veins respectively at 0.083, 0.25, 0.5, 1, 2, 4, 8, and 24 h after the administration, and placed in a test tube containing EDTA-K2. The test tube was then centrifuged at 4000 rpm at 4° C. for 5 min to separate plasma, and the plasma was stored at −75° C. Alternatively, the compounds provided in the present application were administered intragastrically to the rats, then 0.2 mL of blood was collected from jugular veins respectively at 0.25, 0.5, 1, 2, 4, 8, and 24 h after the administration, and placed in a test tube containing EDTA-K2. The test tube was then centrifuged at 3500 rpm at 4° C. for 10 min to separate plasma, and the plasma was stored at −75° C.
The content of the compounds to be tested in rat plasma after intravenous administration or intragastric administration at different concentrations was determined: 30 μL of rat plasma at each time after administration was taken, 200 μL (50 ng/mL) of solution of internal standard dexamethasone in acetonitrile was added, then the resulting mixture was vortex-mixed for 30 s, and centrifuged at 4700 rpm at 4° C. for 15 min, the supernatant of plasma samples was diluted three times with water, and 2.0 μL of diluted solution was taken for LC-MS/MS.

[6] = molecular target: CYP2C19 (Homo sapiens (Human), UniProt P33261); test: CYP enzyme inhibition in pooled human liver microsomes (S-mephenytoin); assay type: in vitro ADME
CYP2C19, sequence (P33261 whole entry): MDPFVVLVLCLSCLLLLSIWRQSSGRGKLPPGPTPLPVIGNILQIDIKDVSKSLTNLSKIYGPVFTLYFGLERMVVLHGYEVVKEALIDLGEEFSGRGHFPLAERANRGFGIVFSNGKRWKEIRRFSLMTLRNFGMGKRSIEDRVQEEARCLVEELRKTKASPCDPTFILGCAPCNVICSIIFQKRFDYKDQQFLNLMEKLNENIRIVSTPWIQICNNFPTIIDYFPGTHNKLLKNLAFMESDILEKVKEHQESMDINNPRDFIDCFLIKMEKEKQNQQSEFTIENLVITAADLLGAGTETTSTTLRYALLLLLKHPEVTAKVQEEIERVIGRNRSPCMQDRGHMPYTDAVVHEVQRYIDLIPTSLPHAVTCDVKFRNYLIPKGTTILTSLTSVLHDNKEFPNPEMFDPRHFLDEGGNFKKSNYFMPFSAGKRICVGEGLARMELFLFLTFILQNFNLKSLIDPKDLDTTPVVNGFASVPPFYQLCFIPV
Method: (§1) Typical substrate metabolic responses of five major human CYP subtypes (CYP1A2, CYP2C9, CYP2C19, CYP2D6, CYP3A4) were evaluated using 150-donor pooled human liver microsomes (purchased from Corning, Cat. No.: 452117). The influence of different concentrations of each compound to be tested on metabolic responses of phenacetin (CYP1A2), diclofenac sodium (CYP2C9), S-mephenytoin (CYP2C19), bufuralol hydrochloride (CYP2D6), and midazolam (CYP3A4) was determined by liquid chromatography-mass spectrometry (LC/MS/MS). […] Then 200 μL of acetonitrile solution containing 3% formic acid and 40 nM internal standard verapamil was added and centrifuged at 4000 rpm for 50 min. The mixture was cooled on ice for 20 min and centrifuged at 4000 rpm for 20 min to precipitate the protein. Then 200 μL of supernatant was analyzed by LC-MS/MS. The peak area was calculated from the chromatogram. The residual activity ratio (%) was calculated according to the following equation: Peak area ratio=metabolite peak area/internal standard peak area Residual activity ratio (%)=peak area ratio of compounds-to-be-tested group/peak area ratio of blank group The half inhibitory concentration (IC50) for CYP was calculated by Excel XLfit 5.3.1.3.

[7] = molecular target: USP1 (Recombinant Human His6-USP1/His6-UAF1 Complex Protein) (Homo sapiens (Human), UniProt O94782); test: In vitro activity assay for USP1 (Ub-CHOP2-Reporter deubiquitination assay); assay type: biochemical; settings: 0.5 h incubation at room temperature, read-out: In vitro inhibitory activity of USP1 IC50
USP1 (Recombinant Human His6-USP1/His6-UAF1 Complex Protein), sequence (O94782 whole entry): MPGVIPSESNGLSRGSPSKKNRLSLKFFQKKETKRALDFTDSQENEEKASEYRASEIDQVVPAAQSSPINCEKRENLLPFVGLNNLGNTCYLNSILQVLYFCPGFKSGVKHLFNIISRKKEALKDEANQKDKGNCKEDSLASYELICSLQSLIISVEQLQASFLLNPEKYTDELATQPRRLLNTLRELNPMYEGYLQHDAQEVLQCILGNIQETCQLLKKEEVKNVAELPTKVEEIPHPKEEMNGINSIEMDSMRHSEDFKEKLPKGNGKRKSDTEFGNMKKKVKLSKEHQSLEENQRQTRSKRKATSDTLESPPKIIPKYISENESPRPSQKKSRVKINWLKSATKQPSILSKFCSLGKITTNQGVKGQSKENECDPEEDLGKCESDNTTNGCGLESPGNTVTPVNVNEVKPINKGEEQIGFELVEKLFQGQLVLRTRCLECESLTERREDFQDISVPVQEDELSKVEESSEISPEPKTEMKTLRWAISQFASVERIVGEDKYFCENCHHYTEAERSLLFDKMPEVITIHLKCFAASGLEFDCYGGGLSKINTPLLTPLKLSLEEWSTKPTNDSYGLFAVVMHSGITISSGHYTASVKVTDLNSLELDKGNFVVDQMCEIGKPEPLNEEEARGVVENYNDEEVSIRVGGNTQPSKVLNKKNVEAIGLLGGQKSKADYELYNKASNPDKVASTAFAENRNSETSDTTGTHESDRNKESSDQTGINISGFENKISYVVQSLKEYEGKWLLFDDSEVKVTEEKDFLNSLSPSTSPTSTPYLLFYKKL
USP1 (Recombinant Human His6-USP1/His6-UAF1 Complex Protein), sequence (Q8TAF3 whole entry partner): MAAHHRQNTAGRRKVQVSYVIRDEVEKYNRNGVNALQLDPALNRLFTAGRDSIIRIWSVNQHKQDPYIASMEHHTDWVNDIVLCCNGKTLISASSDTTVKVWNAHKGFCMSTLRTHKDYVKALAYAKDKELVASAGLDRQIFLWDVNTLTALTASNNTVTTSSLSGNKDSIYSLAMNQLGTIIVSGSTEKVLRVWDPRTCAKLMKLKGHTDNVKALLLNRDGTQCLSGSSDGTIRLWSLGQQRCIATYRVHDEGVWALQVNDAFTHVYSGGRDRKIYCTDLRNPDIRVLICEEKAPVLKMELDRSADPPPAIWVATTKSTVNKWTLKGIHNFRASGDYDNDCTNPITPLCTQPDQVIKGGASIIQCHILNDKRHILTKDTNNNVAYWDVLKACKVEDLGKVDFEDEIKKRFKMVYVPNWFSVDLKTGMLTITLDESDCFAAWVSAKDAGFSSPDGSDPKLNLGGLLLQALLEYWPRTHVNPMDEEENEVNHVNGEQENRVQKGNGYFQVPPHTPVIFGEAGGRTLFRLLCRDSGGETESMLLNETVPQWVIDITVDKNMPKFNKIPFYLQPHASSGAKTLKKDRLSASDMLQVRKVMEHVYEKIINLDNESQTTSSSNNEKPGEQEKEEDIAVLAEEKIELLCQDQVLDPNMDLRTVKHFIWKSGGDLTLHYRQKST
How it was run: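 His6-USP1/His6-UAF1 complex was mixed with compound in 20 mM Tris-HCl pH 8.0, 2 mM CaCl2, 2 mM β-mercaptoethanol and 0.05% CHAPS. Ub-CHOP2 reporter system plus substrate was added, then incubated 0.5 h at room temperature. IC50 came from a four-parameter logistic fit.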

[8] = molecular target: CYP3A4 (Homo sapiens (Human), UniProt P08684); test: CYP enzyme inhibition in pooled human liver microsomes (midazolam); assay type: in vitro ADME
CYP3A4, sequence (P08684 whole entry): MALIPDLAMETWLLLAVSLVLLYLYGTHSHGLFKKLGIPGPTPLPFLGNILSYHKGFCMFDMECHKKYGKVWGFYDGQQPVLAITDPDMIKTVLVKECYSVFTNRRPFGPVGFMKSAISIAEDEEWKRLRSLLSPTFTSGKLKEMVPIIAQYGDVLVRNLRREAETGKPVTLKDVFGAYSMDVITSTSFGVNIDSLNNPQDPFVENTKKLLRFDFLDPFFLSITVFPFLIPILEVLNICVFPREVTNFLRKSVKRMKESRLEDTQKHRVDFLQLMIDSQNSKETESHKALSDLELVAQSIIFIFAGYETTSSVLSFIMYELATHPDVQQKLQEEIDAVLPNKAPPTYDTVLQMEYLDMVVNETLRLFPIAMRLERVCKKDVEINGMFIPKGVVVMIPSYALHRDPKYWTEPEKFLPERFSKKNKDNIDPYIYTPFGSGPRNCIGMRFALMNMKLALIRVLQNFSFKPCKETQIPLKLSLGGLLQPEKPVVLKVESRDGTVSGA
Method: as §1

[9] = molecular target: CYP2D6 (Homo sapiens (Human), UniProt P10635); test: CYP enzyme inhibition in pooled human liver microsomes (bufuralol hydrochloride); assay type: in vitro ADME
CYP2D6, sequence (P10635 whole entry): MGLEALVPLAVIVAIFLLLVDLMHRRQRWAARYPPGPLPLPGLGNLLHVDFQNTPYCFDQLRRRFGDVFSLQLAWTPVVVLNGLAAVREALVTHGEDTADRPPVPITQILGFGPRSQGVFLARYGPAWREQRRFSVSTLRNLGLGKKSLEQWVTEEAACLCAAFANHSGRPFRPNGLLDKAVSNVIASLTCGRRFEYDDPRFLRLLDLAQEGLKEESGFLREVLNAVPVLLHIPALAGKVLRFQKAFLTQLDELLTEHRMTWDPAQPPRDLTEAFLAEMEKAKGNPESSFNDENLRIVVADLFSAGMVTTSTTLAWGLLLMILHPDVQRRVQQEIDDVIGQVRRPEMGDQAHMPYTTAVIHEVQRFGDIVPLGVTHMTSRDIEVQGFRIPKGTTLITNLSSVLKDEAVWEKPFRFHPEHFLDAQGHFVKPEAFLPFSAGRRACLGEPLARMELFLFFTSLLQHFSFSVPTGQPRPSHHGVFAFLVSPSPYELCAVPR
Method: as §1

[10] = system: MDA-MB-436 cells;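 also: MDA-MB-436 proliferation over 7 days with compound, viability read as ATP luminescence (CellTiter-Glo), inhibition relative to DMSO-only wells, day 0 signal as background, GI50 from four-parameter fit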
[11] = molecular target: CYP2C9 (Homo sapiens (Human), UniProt P11712); test: CYP enzyme inhibition in pooled human liver microsomes (diclofenac sodium); assay type: in vitro ADME
CYP2C9, sequence (P11712 whole entry): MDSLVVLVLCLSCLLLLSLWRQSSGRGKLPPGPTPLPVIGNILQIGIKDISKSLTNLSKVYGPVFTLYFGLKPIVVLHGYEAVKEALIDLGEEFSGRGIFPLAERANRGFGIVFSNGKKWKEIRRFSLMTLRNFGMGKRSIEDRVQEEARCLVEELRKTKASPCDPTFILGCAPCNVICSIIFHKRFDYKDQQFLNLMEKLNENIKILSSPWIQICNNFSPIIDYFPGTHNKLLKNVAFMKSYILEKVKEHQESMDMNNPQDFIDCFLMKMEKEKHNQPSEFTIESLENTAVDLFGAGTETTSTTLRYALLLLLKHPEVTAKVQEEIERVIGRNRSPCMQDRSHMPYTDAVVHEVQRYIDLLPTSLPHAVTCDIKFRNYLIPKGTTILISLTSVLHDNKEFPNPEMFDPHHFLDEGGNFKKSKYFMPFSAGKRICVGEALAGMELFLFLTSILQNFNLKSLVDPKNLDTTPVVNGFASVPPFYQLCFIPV
Method: as §1

[12] = molecular target: CYP1A2 (Homo sapiens (Human), UniProt P05177); test: CYP enzyme inhibition in pooled human liver microsomes (phenacetin); assay type: in vitro ADME
CYP1A2, sequence (P05177 whole entry): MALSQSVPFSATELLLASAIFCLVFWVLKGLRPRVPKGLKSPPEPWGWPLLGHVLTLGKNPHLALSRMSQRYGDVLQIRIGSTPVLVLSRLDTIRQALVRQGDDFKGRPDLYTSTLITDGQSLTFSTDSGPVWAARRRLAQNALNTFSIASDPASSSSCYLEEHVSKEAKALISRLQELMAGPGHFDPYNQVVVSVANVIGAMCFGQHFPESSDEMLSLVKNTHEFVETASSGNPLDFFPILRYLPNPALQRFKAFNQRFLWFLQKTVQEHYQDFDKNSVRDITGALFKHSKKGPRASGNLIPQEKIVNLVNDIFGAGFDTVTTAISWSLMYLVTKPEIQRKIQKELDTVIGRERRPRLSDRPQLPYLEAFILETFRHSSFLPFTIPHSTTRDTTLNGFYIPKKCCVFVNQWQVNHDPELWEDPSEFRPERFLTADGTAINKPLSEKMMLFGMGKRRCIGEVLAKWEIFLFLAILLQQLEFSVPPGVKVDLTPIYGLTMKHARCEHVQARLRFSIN
Method: as §1

PXR, sequence (O75469 whole entry): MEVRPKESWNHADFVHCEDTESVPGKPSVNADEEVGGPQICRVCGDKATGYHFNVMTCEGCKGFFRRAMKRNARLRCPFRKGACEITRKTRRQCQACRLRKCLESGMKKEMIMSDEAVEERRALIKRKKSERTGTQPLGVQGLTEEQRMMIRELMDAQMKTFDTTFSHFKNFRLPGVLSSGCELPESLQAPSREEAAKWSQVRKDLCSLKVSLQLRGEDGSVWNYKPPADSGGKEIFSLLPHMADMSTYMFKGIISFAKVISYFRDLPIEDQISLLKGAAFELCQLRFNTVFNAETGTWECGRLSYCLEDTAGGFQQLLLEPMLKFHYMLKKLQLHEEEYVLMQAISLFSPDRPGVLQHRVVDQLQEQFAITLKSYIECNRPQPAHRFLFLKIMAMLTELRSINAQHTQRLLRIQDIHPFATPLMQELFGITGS

Row | PXR activation (% Positive control) ([1]; 30 μM) | Papp A→B at 2 h, 5 μM ([2]; apical to basolateral) [×10⁻⁶ cm/s] | Papp B→A at 2 h, 5 μM ([2]; basolateral to apical) [×10⁻⁶ cm/s] | hepatocyte CLint at 1 μM [3] [µL/min/1e6 cells] | hepatocyte CLint at 1 μM [4] [µL/min/1e6 cells] | Vd ([5]; IV 2 mg/kg, read-out: Apparent volume of distribution Vss_obs) [L/kg] | clearance ([5]; IV 2 mg/kg, read-out: Clearance CL_obs) [mL/min/kg] | half-life ([5]; IV 2 mg/kg, read-out: Half-life period T1/2 (converted)) [min] | bioavailability ([5]; PO 5 mg/kg versus IV, read-out: Bioavailability F) [%] | Cmax ([5]; PO 5 mg/kg, read-out: Maximum plasma concentration Cmax) [ng/mL] | PXR activation (% Positive control) ([1]; 10 μM) | IC50 [6] [µM] | IC50 [7] [nM] | IC50 [8] [µM] | IC50 [9] [µM] | GI50 [10] [nM] | IC50 [11] [µM] | IC50 [12] [µM] | SMILES
1 | 32.8 | 7.5 | 17.3 | 4 | < 1 | 4.1 | 11.4 | 360 | 47.2 | 235 |  |  |  |  |  |  |  |  | COc1ncnc(C2CC2)c1-c1ncc2c(n1)N(Cc1ccc(-c3nc(C(F)(F)F)cn3C)cc1)C(=O)OC2(C)C [Compound 50, 7-(4-cyclopropyl-6-methoxypyrimidin-5-yl)-4,4-dimethyl-1-(4-(1-methyl-4-(trifluoromethyl)-1H-imidazol-2-yl)benzyl)-1,4-dihydro-2H-pyrimido[4,5-d][1,3]oxazin-2-one]
2 |  |  |  |  |  |  |  |  |  |  | 13.2 | 10.2 | 17.3 | > 30 | > 30 | 30.7 | 4.5 | > 30 | COc1ncnc(C2CC2)c1-c1ncc2c(n1)N(Cc1ccc(-n3nc(C(F)(F)F)cc3C)cc1)C(=O)OC2(C)C [Compound 74, 7-(4-cyclopropyl-6-methoxypyrimidin-5-yl)-4,4-dimethyl-1-(4-(5-methyl-3-(trifluoromethyl)-1H-pyrazol-1-yl)benzyl)-1,4-dihydro-2H-pyrimido[4,5-d][1,3]oxazin-2-one]
